Assay [1] addresses Cystic fibrosis transmembrane conductance regulator (Rattus norvegicus) (UniProt P34158). Nature of the assay: Percent activity against CFTR (cystic fibrosis transmembrane conductance regulator) in rat relative to UCCF-152(50 uM).
The target is the same in assay [2]. Nature of the assay: Percent activity against CFTR (cystic fibrosis transmembrane conductance regulator) in rat relative to genistein(50 uM).

Sequence of Cystic fibrosis transmembrane conductance regulator (Rattus norvegicus) (P34158 whole entry): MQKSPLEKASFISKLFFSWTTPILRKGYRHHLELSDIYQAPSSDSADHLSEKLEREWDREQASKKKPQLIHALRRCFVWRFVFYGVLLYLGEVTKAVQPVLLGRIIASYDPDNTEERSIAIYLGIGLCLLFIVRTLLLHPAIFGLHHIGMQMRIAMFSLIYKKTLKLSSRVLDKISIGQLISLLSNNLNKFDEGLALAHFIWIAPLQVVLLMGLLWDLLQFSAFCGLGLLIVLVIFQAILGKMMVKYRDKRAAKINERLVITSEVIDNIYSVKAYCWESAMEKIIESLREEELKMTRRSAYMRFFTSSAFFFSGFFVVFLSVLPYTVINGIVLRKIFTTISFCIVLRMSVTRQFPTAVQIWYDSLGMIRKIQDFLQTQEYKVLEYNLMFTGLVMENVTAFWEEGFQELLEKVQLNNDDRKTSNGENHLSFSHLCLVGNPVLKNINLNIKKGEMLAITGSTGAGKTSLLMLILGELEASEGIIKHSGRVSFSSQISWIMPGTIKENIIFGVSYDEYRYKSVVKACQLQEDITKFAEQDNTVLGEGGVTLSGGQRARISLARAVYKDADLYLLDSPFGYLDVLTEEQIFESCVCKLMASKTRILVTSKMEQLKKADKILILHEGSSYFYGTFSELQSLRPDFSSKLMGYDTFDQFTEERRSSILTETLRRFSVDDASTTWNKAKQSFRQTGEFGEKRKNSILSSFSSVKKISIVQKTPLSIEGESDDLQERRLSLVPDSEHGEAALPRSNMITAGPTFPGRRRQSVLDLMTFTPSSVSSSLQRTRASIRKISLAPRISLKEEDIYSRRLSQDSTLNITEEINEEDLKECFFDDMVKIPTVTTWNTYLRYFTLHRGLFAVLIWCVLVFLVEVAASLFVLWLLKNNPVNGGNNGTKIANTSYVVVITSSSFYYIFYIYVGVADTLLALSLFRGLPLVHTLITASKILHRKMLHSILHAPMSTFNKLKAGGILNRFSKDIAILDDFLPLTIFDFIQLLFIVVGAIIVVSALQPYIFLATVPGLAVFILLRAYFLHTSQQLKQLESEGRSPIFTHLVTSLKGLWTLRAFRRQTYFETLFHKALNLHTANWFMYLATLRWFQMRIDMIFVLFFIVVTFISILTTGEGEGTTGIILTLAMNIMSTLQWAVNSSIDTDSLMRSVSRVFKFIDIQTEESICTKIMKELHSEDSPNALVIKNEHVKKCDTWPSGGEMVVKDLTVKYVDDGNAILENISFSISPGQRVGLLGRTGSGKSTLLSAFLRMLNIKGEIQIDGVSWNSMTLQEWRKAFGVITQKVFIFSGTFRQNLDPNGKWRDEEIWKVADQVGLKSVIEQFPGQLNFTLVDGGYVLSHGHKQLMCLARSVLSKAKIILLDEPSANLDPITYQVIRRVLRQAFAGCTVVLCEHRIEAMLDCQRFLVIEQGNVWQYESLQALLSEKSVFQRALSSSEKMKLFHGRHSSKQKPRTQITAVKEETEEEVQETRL

Compound `COc1ccccc1-c1cc(CCl)on1` showed an Activity in assay [1] of 8%.

With `COCc1cc(-c2ccccc2OCc2ccc(Br)cc2)no1`, the Activity in assay [1] amounted to 10%.

On to `COc1ccc(COc2ccccc2-c2cc(CCl)on2)cc1`, for which the Activity in assay [1] amounted to 72%.

`COC(=O)C1CC(c2ccccc2OCc2ccc(OC)cc2)=NO1` (configuration not stated): the Activity in assay [1] worked out at 64%.

With `ClCc1cc(-c2ccccc2OCc2ccccc2)no1`, the Activity in assay [2] was 55%.

`COc1ccc(COc2ccccc2C2=NOC(CCl)C2)cc1` (configuration not stated): in assay [1], the Activity is 61%.

`OCCc1cc(-c2ccccc2OCc2ccc(Br)cc2)no1` showed an Activity in assay [1] of 106%.

With `COc1cccc(COc2ccccc2-c2cc(CO)on2)c1`, in assay [1], the Activity came to 45%.

With `COC(=O)C1CC(c2cc(Br)ccc2OCc2ccc(OC)cc2)=NO1` (configuration not stated), the Activity in assay [1] is 41%.

`COC(=O)c1onc(-c2ccccc2OCc2ccc(Br)cc2)c1C(=O)OC` returned an Activity in assay [1] of 21%.

`OCc1cc(-c2ccccc2OCc2ccc(Br)cc2)no1` returned an Activity in assay [1] of 39%.

`COc1cccc(COc2ccccc2-c2cc(CCO)on2)c1` yielded an Activity in assay [1] of 31%.

In the case of `COc1cccc(COc2ccccc2C2=NOC(CO)C2)c1` (configuration not stated), the Activity in assay [1] was 29%.

`COc1ccccc1-c1cc(CO)on1` yielded an Activity in assay [1] of 22%.

In assay [1], `COc1ccc(COc2ccccc2C2=NOC(CO)C2)cc1` (configuration not stated) returned an Activity of 63%.

In the case of `COc1ccc(COc2ccc(Br)cc2-c2cc(CCl)on2)cc1`, the Activity in assay [1] was determined as 9%.

In the case of `CCCCc1cc(-c2ccccc2OCc2ccc(OC)cc2)no1`, the Activity in assay [1] was 8%.

`COc1ccc(COc2ccccc2-c2cc(CO)on2)cc1`: in assay [1], the Activity stood at 45%.

In the case of `COC(=O)C1CC(c2ccccc2OCc2ccc(Br)cc2)=NO1` (configuration not stated), the Activity in assay [1] was 48%.

The compound `COC(=O)c1cc(-c2ccccc2OCc2ccc(Br)cc2)no1` came in with an Activity in assay [1] of 32%.

As to `COc1ccc(COc2ccccc2-c2cc(CCO)on2)cc1`, the Activity in assay [1] turned out to be 46%.

For the compound `COC(=O)C1CC(c2ccccc2OCc2cccc(OC)c2)=NO1` (configuration not stated), the Activity in assay [1] was 29%.

`ClCc1cc(-c2ccccc2OCc2ccc(Br)cc2)no1` registered an Activity in assay [1] of 25%.

With `COc1ccc(COc2ccc(-c3cc(CCl)on3)cc2)cc1`, in assay [1], the Activity turned out to be 3%.

In assay [1], `COc1cccc(COc2ccccc2C2=NOC(CCl)C2)c1` (configuration not stated) yielded an Activity of 58%.

`COc1ccc(COc2ccc(Br)cc2-c2cc(CO)on2)cc1`: in assay [1], the Activity was 30%.

Turning to `COc1ccc(COc2cccc(-c3cc(CCl)on3)c2)cc1`, the Activity in assay [1] amounted to 2%.

(Values after ChEMBL document CHEMBL1136128, “3-(2-Benzyloxyphenyl)isoxazoles and isoxazolines: synthesis and evaluation as CFTR activators” (Bioorg Med Chem Lett, 2003).)
